{"source": "patent US20250082931A1", "about": "“Treating Gastric Cancer Using TTFields Combined with XELOX, FOLFOX or the Individual Constituents Thereof” (Novocure GmbH, priority 2019, published 2025)", "key": {"AGS cells [1]": {"tested_on": "AGS cells", "test": "Overall effect (cytotoxic effect x clonogenic effect)", "assay_type": "cell-based", "conditions": "for overall effect (colonies count multiplying the cytotoxic effect): 72 h", "method": "(§1) After 6-14 days the colonies were fixed, stained and counted to determine clonogenic effect. The overall effect was calculated by multiplying the cytotoxic effect and the clonogenic effect.\n(§2) Overall effect: Each colony number was multiply in the percent of cytotoxic effect of its dish and averages and standard deviations of each treatment were calculated in Excel software. […] Significant was determine by 2-way ANOVA followed Multiple comparison using GraphPed software."}, "AGS cells [2]": {"tested_on": "AGS cells", "test": "Cytotoxic effect by cell count after 72 h, with and without TTFields", "method": "(§3) During the treatment the media of all dishes was replaced every 24 h (“hours”).\n(§4) After 72 h of treatment the media and the cells were collected, and cytotoxicity was determined by cell counts.\n(§5) Cells were seeded on inovitro dishes and petri dishes 24 h before starting the experiments. Media containing the indicated concentration of each chemotherapy component alone or FOLFOX and control media was added to the cells and the dishes were connected to TTFields (as in SOP-BI-009) or grown in 37° C., 5% CO2 for 72 h. Each treatment included 8 repeats (8 dishes). The media was replaced every 24 h. At the end of the experiment the cells were collected, and cytotoxicity was determined by cell counts, small number of cells were seeded for colonies and the cells (including cells from the media) were stained for Annexin V and 7AAD for apoptosis analysis.\n(§6) A TTFields generator (Inovitro systems) was used to apply the treatment to the cells.\n(§7) Cytotoxic effect: Average and standard deviation of cell number of at least 5 dishes from each treatment was calculated in Excel software. The averages from these repeats was calculated to averages and standard error and is presented as percent from control (no drug treatment) in XY graph of points with error bars using GraphPed software. Significant was determine by 2-way ANOVA followed Multiple comparison using GraphPed software."}, "AGS cells [3]": {"tested_on": "AGS cells", "method": "as §3, §4, §5, §6, §7"}, "KATO III cells [4]": {"tested_on": "KATO III cells", "test": "Cytotoxic effect by cell count after 72 h, with and without TTFields", "method": "as §3, §4, §5, §6, §7"}, "AGS cells [5]": {"tested_on": "AGS cells", "test": "Clonogenic effect (colonies count)", "assay_type": "cell-based", "conditions": "for colonies count: 72 h", "method": "(§8) After 72 h of treatment the media and the cells were collected, and cytotoxicity was determined by cell counts. […] For the testing of the clonogenic effect, cells were seeded for colonies.\nas §1\n(§9) Clonogenic effect: The colonies from each well were counted using ImageJ software. Average and standard deviation of colony number of at least 5 wells from each treatment were calculated in excel software. The averages from these repeats was calculated to averages and standard errors and is presented as percent from control (no drug treatment) in XY graph of points with error bars using GraphPed software. Significant was determine by 2-way ANOVA followed Multiple comparison using GraphPed software."}, "KATO III cells [6]": {"tested_on": "KATO III cells", "test": "Overall effect (cytotoxic effect x clonogenic effect)", "conditions": "72 h", "method": "as §1, §2"}, "KATO III cells [7]": {"tested_on": "KATO III cells", "method": "as §3, §4, §5, §6, §7"}, "KATO III cells [8]": {"tested_on": "KATO III cells", "test": "Clonogenic effect (colonies count)", "conditions": "for colonies count: 72 h", "method": "as §8, §1, §9"}, "AGS cells [9]": {"tested_on": "AGS cells", "test": "Apoptosis analysis by Annexin V / 7AAD staining", "assay_type": "cell-based", "method": "After 72 h of treatment the media and the cells were collected, and cytotoxicity was determined by cell counts. Cells (including cells from the media) were stained for Annexin V and 7AAD for apoptosis analysis. For the testing of the clonogenic effect, cells were seeded for colonies.\nas §5\nApoptotic effect: Average of cell fraction of each marker staining (Annexin V and 7AAD) of at least 5 dishes from each treatment was calculated in Excel software. The averages from these repeats was calculated to averages and is presented in stacked bar graph using GraphPed software."}, "[10]": {"conditions": "0.5 uM, + TTFields 150 kHz 1.0 V/cm"}, "[11]": {"conditions": "1.5 uM, + TTFields 150 kHz 1.0 V/cm"}, "[12]": {"conditions": "4.5 uM, + TTFields 150 kHz 1.0 V/cm"}, "[13]": {"conditions": "13.5 uM, + TTFields 150 kHz 1.0 V/cm"}, "[14]": {"conditions": "40 uM, + TTFields 150 kHz 1.0 V/cm"}, "[15]": {"conditions": "FOLFOX experiment, 0.5 uM, + TTFields 150 kHz 1.0 V/cm"}, "[16]": {"conditions": "FOLFOX experiment, 0.5 uM, no TTFields"}, "[17]": {"conditions": "1.5 uM, + TTFields 150 kHz 1.6 V/cm"}, "[18]": {"conditions": "4.5 uM, + TTFields 150 kHz 1.6 V/cm"}, "[19]": {"conditions": "13.5 uM, + TTFields 150 kHz 1.6 V/cm"}, "[20]": {"conditions": "40 uM, + TTFields 150 kHz 1.6 V/cm"}, "[21]": {"conditions": "0.5 uM, 72 h, + TTFields 150 kHz 1.0 V/cm"}}}
{"smiles": "O=c1[nH]cc(F)c(=O)[nH]1", "note": "[5-FU, 5-fluorouracil]", "values": [{"measurement": "interaction with TTFields based on the overall effect", "setting": "AGS cells [1]", "result": "synergistic"}, {"measurement": "overall effect (colonies count multiplying the cytotoxic effect)", "setting": "AGS cells [1]; [10]", "result": 36, "unit": "% from control"}, {"measurement": "overall effect (colonies count multiplying the cytotoxic effect)", "setting": "AGS cells [1]; 0.5 uM, no TTFields", "result": 97, "unit": "% from control"}, {"measurement": "overall effect (colonies count multiplying the cytotoxic effect)", "setting": "AGS cells [1]; [11]", "result": 30, "unit": "% from control"}, {"measurement": "overall effect (colonies count multiplying the cytotoxic effect)", "setting": "AGS cells [1]; 1.5 uM, no TTFields", "result": 81, "unit": "% from control"}, {"measurement": "overall effect (colonies count multiplying the cytotoxic effect)", "setting": "AGS cells [1]; [12]", "result": 11, "unit": "% from control"}, {"measurement": "overall effect (colonies count multiplying the cytotoxic effect)", "setting": "AGS cells [1]; 4.5 uM, no TTFields", "result": 50, "unit": "% from control"}, {"measurement": "overall effect (colonies count multiplying the cytotoxic effect)", "setting": "AGS cells [1]; [13]", "result": 2, "unit": "% from control"}, {"measurement": "overall effect (colonies count multiplying the cytotoxic effect)", "setting": "AGS cells [1]; 13.5 uM, no TTFields", "result": 2, "unit": "% from control"}, {"measurement": "overall effect (colonies count multiplying the cytotoxic effect)", "setting": "AGS cells [1]; [14]", "result": 0, "unit": "% from control"}, {"measurement": "overall effect (colonies count multiplying the cytotoxic effect)", "setting": "AGS cells [1]; 40 uM, no TTFields", "result": 0, "unit": "% from control"}, {"measurement": "overall effect (colonies count multiplying the cytotoxic effect)", "setting": "AGS cells [1]; [15]", "result": 36, "unit": "% from control"}, {"measurement": "overall effect (colonies count multiplying the cytotoxic effect)", "setting": "AGS cells [1]; [16]", "result": 87, "unit": "% from control"}, {"measurement": "cell count", "setting": "AGS cells [2]; [10]", "result": 61, "unit": "% from control"}, {"measurement": "cell count", "setting": "AGS cells [2]; 0.5 uM, no TTFields", "result": 90, "unit": "% from control"}, {"measurement": "cell count", "setting": "AGS cells [2]; [11]", "result": 47, "unit": "% from control"}, {"measurement": "cell count", "setting": "AGS cells [2]; 1.5 uM, no TTFields", "result": 83, "unit": "% from control"}, {"measurement": "cell count", "setting": "AGS cells [2]; [12]", "result": 27, "unit": "% from control"}, {"measurement": "cell count", "setting": "AGS cells [2]; 4.5 uM, no TTFields", "result": 52, "unit": "% from control"}, {"measurement": "cell count", "setting": "AGS cells [2]; [13]", "result": 15, "unit": "% from control"}, {"measurement": "cell count", "setting": "AGS cells [2]; 13.5 uM, no TTFields", "result": 24, "unit": "% from control"}, {"measurement": "cell count", "setting": "AGS cells [2]; [14]", "result": 19, "unit": "% from control"}, {"measurement": "cell count", "setting": "AGS cells [2]; 40 uM, no TTFields", "result": 25, "unit": "% from control"}, {"measurement": "cell count", "setting": "AGS cells [2]; [15]", "result": 61, "unit": "% from control"}, {"measurement": "cell count", "setting": "AGS cells [2]; [16]", "result": 79, "unit": "% from control"}, {"measurement": "cytotoxic effect of drug + TTFields compared to drug alone", "setting": "AGS cells [3]", "result": "significantly higher"}, {"measurement": "cell count", "setting": "KATO III cells [4]; [17]", "result": 47, "unit": "% from control"}, {"measurement": "cell count", "setting": "KATO III cells [4]; 1.5 uM, no TTFields", "result": 70, "unit": "% from control"}, {"measurement": "cell count", "setting": "KATO III cells [4]; [18]", "result": 42, "unit": "% from control"}, {"measurement": "cell count", "setting": "KATO III cells [4]; 4.5 uM, no TTFields", "result": 56, "unit": "% from control"}, {"measurement": "cell count", "setting": "KATO III cells [4]; [19]", "result": 34, "unit": "% from control"}, {"measurement": "cell count", "setting": "KATO III cells [4]; 13.5 uM, no TTFields", "result": 47, "unit": "% from control"}, {"measurement": "cell count", "setting": "KATO III cells [4]; [20]", "result": 32, "unit": "% from control"}, {"measurement": "cell count", "setting": "KATO III cells [4]; 40 uM, no TTFields", "result": 34, "unit": "% from control"}, {"measurement": "cell count", "setting": "KATO III cells [4]; FOLFOX experiment, 1.5 uM, + TTFields 150 kHz 1.6 V/cm", "result": 50, "unit": "% from control"}, {"measurement": "cell count", "setting": "KATO III cells [4]; FOLFOX experiment, 1.5 uM, no TTFields", "result": 73, "unit": "% from control"}, {"measurement": "colonies count", "setting": "AGS cells [5]; [10]", "result": 51, "unit": "% from control"}, {"measurement": "colonies count", "setting": "AGS cells [5]; 0.5 uM, no TTFields", "result": 95, "unit": "% from control"}, {"measurement": "colonies count", "setting": "AGS cells [5]; [11]", "result": 59, "unit": "% from control"}, {"measurement": "colonies count", "setting": "AGS cells [5]; 1.5 uM, no TTFields", "result": 90, "unit": "% from control"}, {"measurement": "colonies count", "setting": "AGS cells [5]; [12]", "result": 35, "unit": "% from control"}, {"measurement": "colonies count", "setting": "AGS cells [5]; 4.5 uM, no TTFields", "result": 74, "unit": "% from control"}, {"measurement": "colonies count", "setting": "AGS cells [5]; [13]", "result": 11, "unit": "% from control"}, {"measurement": "colonies count", "setting": "AGS cells [5]; 13.5 uM, no TTFields", "result": 9, "unit": "% from control"}, {"measurement": "colonies count", "setting": "AGS cells [5]; [14]", "result": 0, "unit": "% from control"}, {"measurement": "colonies count", "setting": "AGS cells [5]; 40 uM, no TTFields", "result": 0, "unit": "% from control"}, {"measurement": "colonies count", "setting": "AGS cells [5]; [15]", "result": 59, "unit": "% from control"}, {"measurement": "colonies count", "setting": "AGS cells [5]; [16]", "result": 100, "unit": "% from control"}, {"measurement": "colonies number (clonogenic effect and overall effect), drug + TTFields compared to drug alone", "setting": "AGS cells [5]; Two-way ANOVA P<0.001", "result": "significant reduction in colonies number"}, {"measurement": "overall effect (colonies count multiplying the cytotoxic effect)", "setting": "KATO III cells [6]; [17]", "result": 24, "unit": "% from control"}, {"measurement": "overall effect (colonies count multiplying the cytotoxic effect)", "setting": "KATO III cells [6]; 1.5 uM, no TTFields", "result": 58, "unit": "% from control"}, {"measurement": "overall effect (colonies count multiplying the cytotoxic effect)", "setting": "KATO III cells [6]; [18]", "result": 18, "unit": "% from control"}, {"measurement": "overall effect (colonies count multiplying the cytotoxic effect)", "setting": "KATO III cells [6]; 4.5 uM, no TTFields", "result": 34, "unit": "% from control"}, {"measurement": "overall effect (colonies count multiplying the cytotoxic effect)", "setting": "KATO III cells [6]; [19]", "result": 3, "unit": "% from control"}, {"measurement": "overall effect (colonies count multiplying the cytotoxic effect)", "setting": "KATO III cells [6]; 13.5 uM, no TTFields", "result": 4, "unit": "% from control"}, {"measurement": "overall effect (colonies count multiplying the cytotoxic effect)", "setting": "KATO III cells [6]; [20]", "result": 0, "unit": "% from control"}, {"measurement": "overall effect (colonies count multiplying the cytotoxic effect)", "setting": "KATO III cells [6]; 40 uM, no TTFields", "result": 0, "unit": "% from control"}, {"measurement": "cytotoxic effect of drug + TTFields compared to drug alone", "setting": "KATO III cells [7]", "result": "significantly higher"}, {"measurement": "colonies count", "setting": "KATO III cells [8]; [17]", "result": 50, "unit": "% from control"}, {"measurement": "colonies count", "setting": "KATO III cells [8]; 1.5 uM, no TTFields", "result": 83, "unit": "% from control"}, {"measurement": "colonies count", "setting": "KATO III cells [8]; [18]", "result": 38, "unit": "% from control"}, {"measurement": "colonies count", "setting": "KATO III cells [8]; 4.5 uM, no TTFields", "result": 55, "unit": "% from control"}, {"measurement": "colonies count", "setting": "KATO III cells [8]; [19]", "result": 8, "unit": "% from control"}, {"measurement": "colonies count", "setting": "KATO III cells [8]; 13.5 uM, no TTFields", "result": 9, "unit": "% from control"}, {"measurement": "colonies count", "setting": "KATO III cells [8]; [20]", "result": 1, "unit": "% from control"}, {"measurement": "colonies count", "setting": "KATO III cells [8]; 40 uM, no TTFields", "result": 2, "unit": "% from control"}, {"measurement": "colonies number (clonogenic effect and overall effect), drug + TTFields compared to drug alone", "setting": "KATO III cells [8]; Two-way ANOVA P<0.001", "result": "significant reduction in colonies number"}, {"measurement": "elevation in percent of cells that undergo apoptosis, drug + TTFields compared to drug alone", "setting": "AGS cells [9]", "result": "higher"}, {"measurement": "AnnV+ 7AAD+ cell fraction", "setting": "AGS cells [9]; [21]", "result": 8.00, "unit": "%"}, {"measurement": "AnnV+ 7AAD− cell fraction", "setting": "AGS cells [9]; [21]", "result": 6.38, "unit": "%"}, {"measurement": "AnnV− 7AAD+ cell fraction", "setting": "AGS cells [9]; [21]", "result": 1.03, "unit": "%"}, {"measurement": "AnnV− 7AAD− cell fraction", "setting": "AGS cells [9]; [21]", "result": 84.58, "unit": "%"}, {"measurement": "AnnV+ 7AAD+ cell fraction", "setting": "AGS cells [9]; 0.5 uM, 72 h, no TTFields", "result": 5.33, "unit": "%"}, {"measurement": "AnnV+ 7AAD− cell fraction", "setting": "AGS cells [9]; 0.5 uM, 72 h, no TTFields", "result": 4.48, "unit": "%"}]}
